Data reported in ChEMBL document CHEMBL3727344, “2-fluoro-benzenesulfonamide compounds as RAF kinase modulators” (2014).

These compounds were tested against Mast/stem cell growth factor receptor Kit (Homo sapiens, UniProt P10721) (assay: Inhibition of Kit (unknown origin)).

IC50, ≤ 10 µM:
CCCS(=O)(=O)Nc1ccc(Cl)c(C(=O)Nc2ccc(Nc3ncc(C)s3)nc2)c1F

Each compound was assayed against Tyrosine-protein kinase Lyn (Homo sapiens, UniProt P07948) (assay: Inhibition of Lyn (unknown origin)).

IC50, ≤ 10 µM:
CCCS(=O)(=O)Nc1ccc(Cl)c(C(=O)Nc2ccc(NC(C)=O)nc2)c1F

Each compound was assayed against High affinity nerve growth factor receptor (Homo sapiens, UniProt P04629) (assay: Inhibition of TrkA (unknown origin)).
High affinity nerve growth factor receptor, sequence (P04629 whole entry): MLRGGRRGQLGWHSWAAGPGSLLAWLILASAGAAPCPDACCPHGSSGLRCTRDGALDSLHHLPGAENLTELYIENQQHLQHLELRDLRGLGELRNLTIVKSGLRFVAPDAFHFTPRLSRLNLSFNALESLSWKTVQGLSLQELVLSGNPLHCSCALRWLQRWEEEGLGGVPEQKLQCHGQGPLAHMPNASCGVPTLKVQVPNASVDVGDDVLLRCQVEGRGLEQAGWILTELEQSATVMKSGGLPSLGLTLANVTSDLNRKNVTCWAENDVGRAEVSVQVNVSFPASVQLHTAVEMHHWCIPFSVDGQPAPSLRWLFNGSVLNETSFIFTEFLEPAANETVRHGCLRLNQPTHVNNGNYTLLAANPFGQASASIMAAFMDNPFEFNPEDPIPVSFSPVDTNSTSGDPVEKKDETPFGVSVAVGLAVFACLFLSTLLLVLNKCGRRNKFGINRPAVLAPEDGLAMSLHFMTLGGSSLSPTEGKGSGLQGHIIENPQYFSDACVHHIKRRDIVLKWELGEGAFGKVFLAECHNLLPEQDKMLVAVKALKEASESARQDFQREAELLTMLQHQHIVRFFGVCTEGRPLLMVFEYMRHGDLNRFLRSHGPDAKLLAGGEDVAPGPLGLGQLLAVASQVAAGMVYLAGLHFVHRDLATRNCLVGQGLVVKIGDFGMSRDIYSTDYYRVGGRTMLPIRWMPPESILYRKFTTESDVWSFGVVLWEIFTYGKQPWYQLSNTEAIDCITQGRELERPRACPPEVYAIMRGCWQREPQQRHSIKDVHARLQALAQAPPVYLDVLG

IC50, ≤ 10 µM:
CCCS(=O)(=O)Nc1ccc(Cl)c(C(=O)Nc2ccc(Nc3ncc(C)s3)nc2)c1F, CCCS(=O)(=O)Nc1ccc(Cl)c(C(=O)Nc2ccc(NC(C)=O)nc2)c1F

What follows are compounds tested against Serine/threonine-protein kinase B-raf (Homo sapiens, UniProt P15056) (assay: Inhibition of B-Raf (unknown origin)).
Serine/threonine-protein kinase B-raf (Homo sapiens, UniProt P15056), sequence (P15056 whole entry): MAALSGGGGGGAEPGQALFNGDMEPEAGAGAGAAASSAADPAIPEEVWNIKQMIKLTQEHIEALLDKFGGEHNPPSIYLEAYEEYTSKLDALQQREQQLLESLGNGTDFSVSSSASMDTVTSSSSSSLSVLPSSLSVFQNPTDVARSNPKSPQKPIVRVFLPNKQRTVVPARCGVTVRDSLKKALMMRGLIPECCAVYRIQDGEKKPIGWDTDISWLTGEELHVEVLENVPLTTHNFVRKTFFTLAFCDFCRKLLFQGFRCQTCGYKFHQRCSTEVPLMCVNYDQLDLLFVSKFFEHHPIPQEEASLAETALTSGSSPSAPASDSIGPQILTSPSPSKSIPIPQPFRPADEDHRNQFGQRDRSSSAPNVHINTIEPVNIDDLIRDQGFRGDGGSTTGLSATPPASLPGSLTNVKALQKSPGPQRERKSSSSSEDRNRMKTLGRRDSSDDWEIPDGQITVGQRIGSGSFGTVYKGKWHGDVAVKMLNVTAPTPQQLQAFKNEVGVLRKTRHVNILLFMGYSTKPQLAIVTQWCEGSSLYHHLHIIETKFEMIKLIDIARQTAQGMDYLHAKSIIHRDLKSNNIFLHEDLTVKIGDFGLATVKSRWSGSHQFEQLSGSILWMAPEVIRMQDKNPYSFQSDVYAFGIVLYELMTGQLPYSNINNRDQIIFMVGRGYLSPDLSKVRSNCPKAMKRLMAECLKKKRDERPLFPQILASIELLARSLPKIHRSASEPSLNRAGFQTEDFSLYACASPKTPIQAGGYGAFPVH

IC50, ≤ 10 µM:
CCCS(=O)(=O)Nc1ccc(F)c(C(=O)Nc2cnc3ccccc3c2)c1F, CCCS(=O)(=O)Nc1ccc(Cl)c(C(=O)Nc2cnc3ccccn23)c1F, CCCS(=O)(=O)Nc1ccc(Cl)c(C(=O)Nc2cnc3ccccc3c2)c1F, CCCS(=O)(=O)Nc1ccc(Cl)c(C(=O)Nc2ccc(NC3CC3)nc2)c1F, CCCS(=O)(=O)Nc1ccc(Cl)c(C(=O)Nc2ccc(NCc3cccs3)nc2)c1F, CCCS(=O)(=O)Nc1ccc(Cl)c(C(=O)Nc2ccc(NCc3ccccc3)nc2)c1F, CCCS(=O)(=O)Nc1ccc(Cl)c(C(=O)Nc2ccc(Nc3ncc(C)s3)nc2)c1F, CCCS(=O)(=O)Nc1ccc(Cl)c(C(=O)Nc2cnc(NC(C)=O)nc2)c1F, CCCS(=O)(=O)Nc1ccc(F)c(C(=O)Nc2ccc(NC(C)=O)nc2)c1F, CCCS(=O)(=O)Nc1ccc(Cl)c(C(=O)Nc2ccc(NC(C)=O)nc2)c1F

The compounds below were run against Focal adhesion kinase 1 (Homo sapiens, UniProt Q05397) (assay: Inhibition of Fak (unknown origin)).

IC50, ≤ 10 µM:
CCCS(=O)(=O)Nc1ccc(Cl)c(C(=O)Nc2ccc(NC(C)=O)nc2)c1F

What follows are compounds tested against Tyrosine-protein kinase Yes (Homo sapiens, UniProt P07947) (assay: Inhibition of Yes (unknown origin)).

IC50, ≤ 10 µM:
CCCS(=O)(=O)Nc1ccc(Cl)c(C(=O)Nc2ccc(NC(C)=O)nc2)c1F

Each compound was assayed against Proto-oncogene tyrosine-protein kinase Src (Homo sapiens, UniProt P12931) (assay: Inhibition of Src (unknown origin)).
Proto-oncogene tyrosine-protein kinase Src, sequence (P12931 2-536 limits assumed): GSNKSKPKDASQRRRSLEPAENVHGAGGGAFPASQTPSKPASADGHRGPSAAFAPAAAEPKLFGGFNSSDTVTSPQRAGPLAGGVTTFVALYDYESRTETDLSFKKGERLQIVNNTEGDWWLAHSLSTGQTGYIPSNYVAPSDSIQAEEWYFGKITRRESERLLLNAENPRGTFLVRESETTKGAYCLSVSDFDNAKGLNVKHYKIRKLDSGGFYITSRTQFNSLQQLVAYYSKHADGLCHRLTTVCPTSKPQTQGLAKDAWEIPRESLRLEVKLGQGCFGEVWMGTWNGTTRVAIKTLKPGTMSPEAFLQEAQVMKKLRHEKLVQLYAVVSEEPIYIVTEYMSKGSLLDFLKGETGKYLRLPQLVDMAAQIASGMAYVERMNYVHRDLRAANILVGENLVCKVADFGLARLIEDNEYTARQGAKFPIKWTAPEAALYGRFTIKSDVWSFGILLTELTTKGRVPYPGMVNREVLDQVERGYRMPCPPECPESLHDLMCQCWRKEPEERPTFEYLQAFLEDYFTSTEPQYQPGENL

IC50, ≤ 10 µM:
CCCS(=O)(=O)Nc1ccc(Cl)c(C(=O)Nc2ccc(Nc3ncc(C)s3)nc2)c1F, CCCS(=O)(=O)Nc1ccc(Cl)c(C(=O)Nc2ccc(NC(C)=O)nc2)c1F

The compounds below were run against RAF proto-oncogene serine/threonine-protein kinase (Homo sapiens, UniProt P04049) (assay: Inhibition of c-Raf 1 (unknown origin)).
RAF proto-oncogene serine/threonine-protein kinase, sequence (P04049 whole entry): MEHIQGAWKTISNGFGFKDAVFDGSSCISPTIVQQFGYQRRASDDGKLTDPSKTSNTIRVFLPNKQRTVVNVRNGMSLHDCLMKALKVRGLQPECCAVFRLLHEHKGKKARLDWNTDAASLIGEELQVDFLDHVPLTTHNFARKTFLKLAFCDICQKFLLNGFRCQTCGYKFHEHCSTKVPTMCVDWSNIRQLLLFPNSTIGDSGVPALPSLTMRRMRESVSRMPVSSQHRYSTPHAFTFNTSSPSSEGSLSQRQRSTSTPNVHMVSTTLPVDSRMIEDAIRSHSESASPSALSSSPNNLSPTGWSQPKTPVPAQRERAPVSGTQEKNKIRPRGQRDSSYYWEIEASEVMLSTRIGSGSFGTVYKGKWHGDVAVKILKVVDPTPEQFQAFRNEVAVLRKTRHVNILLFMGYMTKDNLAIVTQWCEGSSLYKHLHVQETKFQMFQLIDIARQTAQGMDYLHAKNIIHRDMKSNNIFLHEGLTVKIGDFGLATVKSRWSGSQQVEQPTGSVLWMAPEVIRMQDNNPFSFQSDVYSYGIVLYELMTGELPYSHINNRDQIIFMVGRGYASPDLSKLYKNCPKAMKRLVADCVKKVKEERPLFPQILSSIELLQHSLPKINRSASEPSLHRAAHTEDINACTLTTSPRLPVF

IC50, ≤ 10 µM:
CCCS(=O)(=O)Nc1ccc(F)c(C(=O)Nc2cnc3ccccc3c2)c1F, CCCS(=O)(=O)Nc1ccc(Cl)c(C(=O)Nc2cnc3ccccc3c2)c1F, CCCS(=O)(=O)Nc1ccc(Cl)c(C(=O)Nc2ccc(NC3CC3)nc2)c1F, CCCS(=O)(=O)Nc1ccc(Cl)c(C(=O)Nc2ccc(NCc3cccs3)nc2)c1F, CCCS(=O)(=O)Nc1ccc(Cl)c(C(=O)Nc2ccc(NCc3ccccc3)nc2)c1F, CCCS(=O)(=O)Nc1ccc(Cl)c(C(=O)Nc2ccc(Nc3ncc(C)s3)nc2)c1F, CCCS(=O)(=O)Nc1ccc(Cl)c(C(=O)Nc2ccc(NC3CCCC3)nc2)c1F, CCCS(=O)(=O)Nc1ccc(Cl)c(C(=O)Nc2cnc(NC(C)=O)nc2)c1F, CCCS(=O)(=O)Nc1ccc(F)c(CNc2ccc(NC(C)=O)nc2)c1F, CCCS(=O)(=O)Nc1ccc(F)c(CNc2cnc3ccccc3c2)c1F, CCCS(=O)(=O)Nc1ccc(F)c(C(=O)Nc2ccc(NC(C)=O)nc2)c1F, CCCS(=O)(=O)Nc1ccc(Cl)c(C(=O)Nc2ccc(NC(C)=O)nc2)c1F, CCCS(=O)(=O)Nc1ccc(Cl)c(C(=O)Nc2cccnc2)c1F

Each compound was assayed against Protein-tyrosine kinase 6 (Homo sapiens, UniProt Q13882) (assay: Inhibition of Brk (unknown origin)).

IC50, ≤ 10 µM:
CCCS(=O)(=O)Nc1ccc(Cl)c(C(=O)Nc2ccc(NC(C)=O)nc2)c1F

These compounds were tested against T1, Serine/threonine-protein kinase A-Raf (Homo sapiens, UniProt P10398) (assay: Inhibition of A-Raf (unknown origin)).
T1 sequence (P10398 whole entry): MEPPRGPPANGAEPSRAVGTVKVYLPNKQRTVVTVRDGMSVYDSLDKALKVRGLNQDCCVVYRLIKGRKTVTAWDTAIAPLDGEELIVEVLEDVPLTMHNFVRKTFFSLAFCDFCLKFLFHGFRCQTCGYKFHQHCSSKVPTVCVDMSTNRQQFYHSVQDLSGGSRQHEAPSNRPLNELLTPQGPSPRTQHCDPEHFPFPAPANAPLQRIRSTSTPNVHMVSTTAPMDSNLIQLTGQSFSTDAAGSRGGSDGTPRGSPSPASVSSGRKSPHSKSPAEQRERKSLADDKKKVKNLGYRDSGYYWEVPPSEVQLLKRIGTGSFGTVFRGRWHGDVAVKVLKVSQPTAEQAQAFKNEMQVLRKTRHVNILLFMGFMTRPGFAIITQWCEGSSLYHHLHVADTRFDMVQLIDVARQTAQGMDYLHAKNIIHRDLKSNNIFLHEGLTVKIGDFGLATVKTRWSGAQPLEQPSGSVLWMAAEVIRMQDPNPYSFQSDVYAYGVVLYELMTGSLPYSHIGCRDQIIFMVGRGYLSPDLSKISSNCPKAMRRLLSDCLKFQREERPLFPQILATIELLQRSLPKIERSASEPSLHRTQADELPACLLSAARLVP

IC50, ≤ 10 µM:
CCCS(=O)(=O)Nc1ccc(F)c(C(=O)Nc2cnc3ccccc3c2)c1F, CCCS(=O)(=O)Nc1ccc(Cl)c(C(=O)Nc2nnc(Cc3ccc(Cl)cc3)s2)c1F, CCCS(=O)(=O)Nc1ccc(Cl)c(C(=O)Nc2cnc3ccccc3c2)c1F, CCCS(=O)(=O)Nc1ccc(Cl)c(C(=O)Nc2ccc(NC3CC3)nc2)c1F, CCCS(=O)(=O)Nc1ccc(Cl)c(C(=O)Nc2ccc(NCc3cccs3)nc2)c1F, CCCS(=O)(=O)Nc1ccc(Cl)c(C(=O)Nc2ccc(NCc3ccccc3)nc2)c1F, CCCS(=O)(=O)Nc1ccc(Cl)c(C(=O)Nc2cc(-c3ccc(Cl)cc3)n[nH]2)c1F, CCCS(=O)(=O)Nc1ccc(Cl)c(C(=O)Nc2ccc(Nc3ncc(C)s3)nc2)c1F, CCCS(=O)(=O)Nc1ccc(F)c(COc2cnc3ccccc3c2)c1F, CCCS(=O)(=O)Nc1ccc(Cl)c(C(=O)Nc2ccc(NC3CCCC3)nc2)c1F, CCCS(=O)(=O)Nc1ccc(F)c(NCc2cnc3ccccc3c2)c1F, CCCS(=O)(=O)Nc1ccc(Cl)c(C(=O)Nc2ccc(NC(=O)N3CCCC3)nc2)c1F, CCCS(=O)(=O)Nc1ccc(Cl)c(C(=O)Nc2cnc(NC(C)=O)nc2)c1F, CCCS(=O)(=O)Nc1ccc(F)c(CNc2ccc(NC(C)=O)nc2)c1F, CCCS(=O)(=O)Nc1ccc(F)c(CNc2cnc3ccccc3c2)c1F, CCCS(=O)(=O)Nc1ccc(F)c(C(=O)Nc2ccc(NC(C)=O)nc2)c1F, CCCS(=O)(=O)Nc1ccc(Cl)c(C(=O)Nc2ccc(NC(C)=O)nc2)c1F, CCCS(=O)(=O)Nc1ccc(Cl)c(C(=O)Nc2ccc(NC(C)C)nc2)c1F, CCCS(=O)(=O)Nc1ccc(Cl)c(C(=O)Nc2cccnc2)c1F

What follows are compounds tested against Vascular endothelial growth factor receptor 2 (Homo sapiens, UniProt P35968) (assay: Inhibition of Kdr (unknown origin)).

IC50, ≤ 10 µM:
CCCS(=O)(=O)Nc1ccc(Cl)c(C(=O)Nc2ccc(Nc3ncc(C)s3)nc2)c1F

The compounds below were run against Tyrosine-protein kinase CSK (Homo sapiens, UniProt P41240) (assay: Inhibition of Csk (unknown origin)).

IC50, ≤ 10 µM:
CCCS(=O)(=O)Nc1ccc(Cl)c(C(=O)Nc2ccc(NC(C)=O)nc2)c1F

The compounds below were run against Macrophage colony-stimulating factor 1 receptor (Homo sapiens, UniProt P07333) (assay: Inhibition of Fms (unknown origin)).
Macrophage colony-stimulating factor 1 receptor, sequence (P07333 whole entry): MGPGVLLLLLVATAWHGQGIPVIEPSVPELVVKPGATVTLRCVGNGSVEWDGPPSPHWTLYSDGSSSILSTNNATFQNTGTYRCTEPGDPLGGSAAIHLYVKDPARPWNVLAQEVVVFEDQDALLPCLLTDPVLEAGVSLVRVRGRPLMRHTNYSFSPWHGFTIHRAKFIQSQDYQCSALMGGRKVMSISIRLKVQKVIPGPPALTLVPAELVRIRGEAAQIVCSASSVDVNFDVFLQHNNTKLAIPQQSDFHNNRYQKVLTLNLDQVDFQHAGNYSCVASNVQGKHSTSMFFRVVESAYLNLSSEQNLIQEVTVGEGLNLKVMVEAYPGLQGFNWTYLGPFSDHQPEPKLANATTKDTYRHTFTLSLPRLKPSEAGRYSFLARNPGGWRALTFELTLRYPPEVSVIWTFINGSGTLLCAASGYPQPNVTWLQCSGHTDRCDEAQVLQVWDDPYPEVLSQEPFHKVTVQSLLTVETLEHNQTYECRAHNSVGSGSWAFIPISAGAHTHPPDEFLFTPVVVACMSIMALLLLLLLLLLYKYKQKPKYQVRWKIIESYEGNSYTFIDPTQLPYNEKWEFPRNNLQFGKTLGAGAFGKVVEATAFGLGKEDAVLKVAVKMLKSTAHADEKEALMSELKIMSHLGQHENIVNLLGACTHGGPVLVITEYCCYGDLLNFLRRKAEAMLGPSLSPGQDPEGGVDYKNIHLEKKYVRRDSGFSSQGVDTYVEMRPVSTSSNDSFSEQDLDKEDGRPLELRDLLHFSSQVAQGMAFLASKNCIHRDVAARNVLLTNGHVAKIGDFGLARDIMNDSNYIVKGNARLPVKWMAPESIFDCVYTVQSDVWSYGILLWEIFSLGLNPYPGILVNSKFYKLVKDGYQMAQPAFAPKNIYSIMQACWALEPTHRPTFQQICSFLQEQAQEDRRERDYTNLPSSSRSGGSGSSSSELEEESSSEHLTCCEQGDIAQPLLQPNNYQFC

IC50, ≤ 10 µM:
CCCS(=O)(=O)Nc1ccc(Cl)c(C(=O)Nc2cc(-c3ccc(Cl)cc3)n[nH]2)c1F, CCCS(=O)(=O)Nc1ccc(F)c(COc2cnc3ccccc3c2)c1F

These compounds were tested against Serine/threonine-protein kinase B-raf (Homo sapiens, UniProt P15056, V600E) (assay: Inhibition of B-Raf V600E mutant (unknown origin)).
Serine/threonine-protein kinase B-raf (Homo sapiens, UniProt P15056, V600E), sequence (P15056 2-766 V600E limits assumed): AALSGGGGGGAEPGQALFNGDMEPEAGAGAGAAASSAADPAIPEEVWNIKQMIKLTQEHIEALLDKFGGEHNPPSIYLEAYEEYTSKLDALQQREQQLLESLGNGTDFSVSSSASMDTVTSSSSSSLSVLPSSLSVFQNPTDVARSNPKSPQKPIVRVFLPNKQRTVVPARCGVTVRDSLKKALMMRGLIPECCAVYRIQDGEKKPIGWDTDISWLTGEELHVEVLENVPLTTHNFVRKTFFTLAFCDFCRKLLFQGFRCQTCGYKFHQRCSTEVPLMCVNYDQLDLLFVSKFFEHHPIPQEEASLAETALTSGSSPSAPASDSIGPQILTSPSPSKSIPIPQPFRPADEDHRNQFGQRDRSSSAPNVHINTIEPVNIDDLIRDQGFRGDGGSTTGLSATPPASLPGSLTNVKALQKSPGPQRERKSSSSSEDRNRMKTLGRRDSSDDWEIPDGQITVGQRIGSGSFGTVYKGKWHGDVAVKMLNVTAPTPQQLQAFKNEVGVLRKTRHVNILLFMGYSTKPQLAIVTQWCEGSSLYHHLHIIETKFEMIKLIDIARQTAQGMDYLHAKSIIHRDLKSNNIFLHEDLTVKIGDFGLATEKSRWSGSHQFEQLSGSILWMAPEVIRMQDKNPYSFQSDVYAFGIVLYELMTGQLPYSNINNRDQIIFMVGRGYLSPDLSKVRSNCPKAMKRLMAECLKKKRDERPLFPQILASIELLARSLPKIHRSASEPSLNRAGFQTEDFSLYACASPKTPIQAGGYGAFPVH

IC50, ≤ 10 µM:
CCCS(=O)(=O)Nc1ccc(F)c(C(=O)Nc2cnc3ccccc3c2)c1F, CCCS(=O)(=O)Nc1ccc(Cl)c(C(=O)Nc2cnc3ccccn23)c1F, CCCS(=O)(=O)Nc1ccc(Cl)c(C(=O)Nc2cnc3ccccc3c2)c1F, CCCS(=O)(=O)Nc1ccc(Cl)c(C(=O)Nc2ccc(NC3CC3)nc2)c1F, CCCS(=O)(=O)Nc1ccc(Cl)c(C(=O)Nc2ccc(NCc3cccs3)nc2)c1F, CCCS(=O)(=O)Nc1ccc(Cl)c(C(=O)Nc2ccc(NCc3ccccc3)nc2)c1F, CCCS(=O)(=O)Nc1ccc(Cl)c(C(=O)Nc2ccc(Nc3ncc(C)s3)nc2)c1F, CCCS(=O)(=O)Nc1ccc(F)c(COc2cnc3ccccc3c2)c1F, CCCS(=O)(=O)Nc1ccc(F)c(NCc2cnc3ccccc3c2)c1F, CCCS(=O)(=O)Nc1ccc(Cl)c(C(=O)Nc2cnc(NC(C)=O)nc2)c1F, CCCS(=O)(=O)Nc1ccc(F)c(CNc2ccc(NC(C)=O)nc2)c1F, CCCS(=O)(=O)Nc1ccc(F)c(CNc2cnc3ccccc3c2)c1F, CCCS(=O)(=O)Nc1ccc(F)c(C(=O)Nc2ccc(NC(C)=O)nc2)c1F, CCCS(=O)(=O)Nc1ccc(Cl)c(C(=O)Nc2ccc(NC(C)=O)nc2)c1F, CCCS(=O)(=O)Nc1ccc(Cl)c(C(=O)Nc2ccc(NC(C)C)nc2)c1F, CCCS(=O)(=O)Nc1ccc(Cl)c(C(=O)Nc2cccnc2)c1F

Each compound was assayed against Tyrosine-protein kinase Lck (Homo sapiens, UniProt P06239) (assay: Inhibition of Lck (unknown origin)).
Tyrosine-protein kinase Lck, sequence (P06239 whole entry): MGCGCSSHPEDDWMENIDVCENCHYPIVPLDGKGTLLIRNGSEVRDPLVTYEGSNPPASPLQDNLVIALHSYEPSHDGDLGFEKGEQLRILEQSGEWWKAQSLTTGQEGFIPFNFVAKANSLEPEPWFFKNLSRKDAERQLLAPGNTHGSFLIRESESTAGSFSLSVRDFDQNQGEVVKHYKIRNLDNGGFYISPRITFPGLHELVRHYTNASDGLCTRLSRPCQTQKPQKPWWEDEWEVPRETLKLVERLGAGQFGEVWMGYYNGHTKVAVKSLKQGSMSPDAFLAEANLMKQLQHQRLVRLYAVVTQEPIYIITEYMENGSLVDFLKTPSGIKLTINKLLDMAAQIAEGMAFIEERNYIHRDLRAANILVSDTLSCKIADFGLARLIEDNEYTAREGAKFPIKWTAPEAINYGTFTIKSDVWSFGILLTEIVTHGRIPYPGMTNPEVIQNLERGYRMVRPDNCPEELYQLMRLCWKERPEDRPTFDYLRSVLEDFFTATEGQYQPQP

IC50, ≤ 10 µM:
CCCS(=O)(=O)Nc1ccc(Cl)c(C(=O)Nc2ccc(NC(C)=O)nc2)c1F

Each compound was assayed against Tyrosine-protein kinase BTK (Homo sapiens, UniProt Q06187) (assay: Inhibition of Btk (unknown origin)).

IC50, ≤ 10 µM:
CCCS(=O)(=O)Nc1ccc(Cl)c(C(=O)Nc2ccc(Nc3ncc(C)s3)nc2)c1F
